Patent publication US9434743B2, “Indazole derivatives” (TAKEDA PHARMACEUTICAL COMPANY LIMITED, priority 2012, dated 2016)

Tests used:
human MetAP2 enzyme [1] = target: T1, human MetAP2 enzyme (Homo sapiens, UniProt P50579); assay: MetAP2 enzyme assay, enzyme complexed with cobalt ions; conditions: MetAP2 Co pIC50, MetAP2 enzyme complexed with cobalt ions; Met-AMC substrate at Km
Description: DNA encoding the full-length sequence of human MetAP2 enzyme is amplified by PCR and cloned into a pFastBac expression vector (Invitrogen). Recombinant baculovirus incorporating the MetAP2 construct is generated by transposition using the Bac-to-Bac system (Invitrogen). The expression of recombinant protein is carried out by infection of Spodoptera frugiperda Sf9 cells (Invitrogen) in 5 L Wave Bioreactors (Wave Biotech). Recombinant protein is isolated from cellular extracts by binding to an SP Hitrap Fast Flow or SP Sepharose (Sigma) column, and the protein is eluted using a NaCl gradient. Partially purified extracts of MetAP2 are further purified by an AKTA FPLC over a Superdex-200 column (GE). The purity of MetAP2 protein is determined on denaturing SDS-PAGE gel.
The results for each well are expressed as percent inhibition and calculated using the equation:

human MetAP2 enzyme [2] = target: T1, human MetAP2 enzyme; assay: MetAP2 enzyme assay, enzyme complexed with manganese ions; conditions: MetAP2 Mn pIC50, MetAP2 enzyme complexed with manganese ions; Met-AMC substrate at Km

T1 sequence (P50579 whole entry): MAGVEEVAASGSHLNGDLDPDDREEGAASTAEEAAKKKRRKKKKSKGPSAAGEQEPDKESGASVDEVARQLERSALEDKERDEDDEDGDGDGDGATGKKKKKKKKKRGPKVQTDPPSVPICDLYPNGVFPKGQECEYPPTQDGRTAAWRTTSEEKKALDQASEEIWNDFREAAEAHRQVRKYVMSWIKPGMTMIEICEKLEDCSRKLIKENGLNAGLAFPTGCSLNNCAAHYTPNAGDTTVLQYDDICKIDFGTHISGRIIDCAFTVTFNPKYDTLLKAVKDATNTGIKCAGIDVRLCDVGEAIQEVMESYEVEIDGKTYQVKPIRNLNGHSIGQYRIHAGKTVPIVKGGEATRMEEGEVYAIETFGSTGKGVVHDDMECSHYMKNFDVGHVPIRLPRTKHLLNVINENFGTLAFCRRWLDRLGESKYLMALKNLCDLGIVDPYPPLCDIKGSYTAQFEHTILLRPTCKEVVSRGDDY

| Structure (SMILES) | IC50 (human MetAP2 enzyme [1]) [nM] | IC50 (human MetAP2 enzyme [2]) [nM] |
| --- | --- | --- |
| O=C1Cc2c(cccc2-c2cc(C(F)(F)F)cc3[nH]ncc23)N1 [Example 129, 4-(6-(trifluoromethyl)-1H-indazol-4-yl)indolin-2-one] | 10 | 3.98 |
| Cc1ccc(-c2cc(C(F)(F)F)cc3[nH]ncc23)c(N)n1 [Example 211, 6-methyl-3-(6-(trifluoromethyl)-1H-indazol-4-yl)pyridin-2-amine] | 25.1 | 6.31 |
| NC(=O)c1ccccc1-c1cc(C(F)(F)F)cc2[nH]ncc12 [Example 10, 2-(6-(trifluoromethyl)-1H-indazol-4-yl)benzamide] | 1260 | 31.6 |
| CS(=O)(=O)Nc1ccc(-c2cc(C(F)(F)F)cc3[nH]ncc23)cc1 [Example 56, N-(4-(6-(trifluoromethyl)-1H-indazol-4-yl)phenyl)methanesulfonamide] | 39.8 | 12.6 |
| Cc1nn(CC(N)=O)c(C)c1-c1cc(C(F)(F)F)cc2[nH]ncc12 [Example 173, 2-(3,5-dimethyl-4-(6-(trifluoromethyl)-1H-indazol-4-yl)-1H-pyrazol-1-yl)acetamide] | 31.6 | 15.8 |
| Cn1cc2c(-c3cc(C(F)(F)F)cc4[nH]ncc34)cccc2n1 [Example 15, 2′-methyl-6-(trifluoromethyl)-1H,2′H-4,4′-biindazole] | 10 | 6.31 |
| Cc1nn(C)c(C(N)=O)c1-c1cc(C(F)(F)F)cc2[nH]ncc12 [Example 327, 1,3-dimethyl-4-(6-(trifluoromethyl)-1H-indazol-4-yl)-1H-pyrazole-5-carboxamide] | 631 | 63.1 |
| O=C1CNc2ncc(-c3cc(C(F)(F)F)cc4[nH]ncc34)cc2N1 [Example 244, 7-(6-(trifluoromethyl)-1H-indazol-4-yl)-3,4-dihydropyrido[2,3-b]pyrazin-2(1H)-one] | 31.6 | 5.01 |
| Cc1nn(CCN)c(C)c1-c1cc(C(F)(F)F)cc2[nH]ncc12 [Example 176, 2-(3,5-dimethyl-4-(6-(trifluoromethyl)-1H-indazol-4-yl)-1H-pyrazol-1-yl)ethanamine] | 39.8 | 12.6 |
| FC(F)(F)c1cc(-c2cncc3ccccc23)c2cn[nH]c2c1 [Example 111, 4-(6-(trifluoromethyl)-1H-indazol-4-yl)isoquinoline] | 50.1 | 15.8 |
| NC(=O)c1ccc(-c2cc(C(F)(F)F)cc3[nH]ncc23)cn1 [Example 251, 5-(6-(trifluoromethyl)-1H-indazol-4-yl)picolinamide] | 63.1 | 5.01 |
| NS(=O)(=O)c1ccc(-c2cc(C(F)(F)F)cc3[nH]ncc23)cc1 [Example 25, 4-(6-(trifluoromethyl)-1H-indazol-4-yl)benzenesulfonamide] | 50.1 | 7.94 |
| Cn1cc(-c2cc(C(F)(F)F)cc3[nH]ncc23)c(=O)n(Cc2ccc(F)cc2)c1=O [Example 311, 3-(4-fluorobenzyl)-1-methyl-5-(6-(trifluoromethyl)-1H-indazol-4-yl)pyrimidine-2,4(1H,3H)-dione] | 1000 | 63.1 |
| CCN1C(=O)C(=O)c2cc(C)cc(-c3cc(C(F)(F)F)cc4[nH]ncc34)c21 [Example 199, 1-ethyl-5-methyl-7-(6-(trifluoromethyl)-1H-indazol-4-yl)indoline-2,3-dione] | 501 | 158 |

Continued by falling IC50 (human MetAP2 enzyme [1]), values first:

| IC50 (human MetAP2 enzyme [1]) [nM] | IC50 (human MetAP2 enzyme [2]) [nM] | Structure (SMILES) |
| --- | --- | --- |
| 1580 | 79.4 | CS(=O)(=O)c1ccccc1-c1cc(C(F)(F)F)cc2[nH]ncc12 [Example 365, 4-(2-(methylsulfonyl)phenyl)-6-(trifluoromethyl)-1H-indazole] |
| 794 | 31.6 | CNC(=O)c1ncncc1-c1cc(C(F)(F)F)cc2[nH]ncc12 [Example 254, N-methyl-5-(6-(trifluoromethyl)-1H-indazol-4-yl)pyrimidine-4-carboxamide] |
| 316 | 39.8 | CN(C)S(=O)(=O)c1ccccc1-c1cc(C(F)(F)F)cc2[nH]ncc12 [Example 183, N,N-dimethyl-2-(6-(trifluoromethyl)-1H-indazol-4-yl)benzenesulfonamide] |
| 200 | 20 | Cn1cc(-c2cc(C(F)(F)F)cc3[nH]ncc23)c(N)n1 [Example 144, 1-methyl-4-(6-(trifluoromethyl)-1H-indazol-4-yl)-1H-pyrazol-3-amine] |
| 158 | 39.8 | FC(F)(F)c1cc(-c2cccc(-c3cc[nH]n3)c2)c2cn[nH]c2c1 [Example 61, 4-(3-(1H-pyrazol-3-yl)phenyl)-6-(trifluoromethyl)-1H-indazole] |
| 126 | 7.94 | COc1cccc(-c2cc(C(F)(F)F)cc3[nH]ncc23)c1OC [Example 87, 4-(2,3-dimethoxyphenyl)-6-(trifluoromethyl)-1H-indazole] |
| 100 | 15.8 | Cc1c[nH]c2ncc(-c3cc(C(F)(F)F)cc4[nH]ncc34)cc12 [Example 340, 4-(3-methyl-1H-pyrrolo[2,3-b]pyridin-5-yl)-6-(trifluoromethyl)-1H-indazole] |
| 100 | 7.94 | CN(C)C(=O)c1ccc(-c2cc(C(F)(F)F)cc3[nH]ncc23)cc1 [Example 119, N,N-dimethyl-4-(6-(trifluoromethyl)-1H-indazol-4-yl)benzamide] |
| 79.4 | 7.94 | C[C@@H](O)CNc1ncc(-c2cc(C(F)(F)F)cc3[nH]ncc23)cn1 [Example 207, (R)-1-(5-(6-(trifluoromethyl)-1H-indazol-4-yl)pyrimidin-2-ylamino)propan-2-ol] |
| 63.1 | 25.1 | FC(F)(F)c1cc(-c2cccc(N3CCOCC3)c2)c2cn[nH]c2c1 [Example 57, 4-(3-(6-(trifluoromethyl)-1H-indazol-4-yl)phenyl)morpholine] |
| 63.1 | 5.01 | Cc1nn(CC(=O)N2CCOCC2)cc1-c1cc(C(F)(F)F)cc2[nH]ncc12 [Example 277, 2-(3-methyl-4-(6-(trifluoromethyl)-1H-indazol-4-yl)-1H-pyrazol-1-yl)-1-morpholinoethanone] |
| 50.1 | 5.01 | CS(=O)(=O)Nc1ccccc1-c1cc(C(F)(F)F)cc2[nH]ncc12 [Example 44, N-(2-(6-(trifluoromethyl)-1H-indazol-4-yl)phenyl)methanesulfonamide] |
| 39.8 | 12.6 | NS(=O)(=O)c1ccc(-c2cc(C(F)(F)F)cc3[nH]ncc23)c(Cl)c1 [Example 351, 3-chloro-4-(6-(trifluoromethyl)-1H-indazol-4-yl)benzenesulfonamide] |
| 31.6 | 10 | Cn1cnc2ccc(-c3cc(C(F)(F)F)cc4[nH]ncc34)cc21 [Example 64, 4-(1-methyl-1H-benzo[d]imidazol-6-yl)-6-(trifluoromethyl)-1H-indazole] |
| 15.8 | 3.98 | Cc1nn(C)c(C)c1-c1cc(C(F)(F)F)cc2[nH]ncc12 [Example 164, 6-(trifluoromethyl)-4-(1,3,5-trimethyl-1H-pyrazol-4-yl)-1H-indazole] |
| 15.8 | 3.16 | CNC(=O)c1ccc(-c2cc(C(F)(F)F)cc3[nH]ncc23)cc1 [Example 117, N-methyl-4-(6-(trifluoromethyl)-1H-indazol-4-yl)benzamide] |
